Measurements from ChEMBL document CHEMBL4038294, “Divergent synthesis of kinase inhibitor derivatives, leading to discovery of selective Gck inhibitors” (Bioorg Med Chem Lett, 2017).

Tests used:
[1] = biological target: Tyrosine-protein kinase SYK (Homo sapiens) (UniProt P43405); experiment: Inhibition of human wild type partial length SYK (D354 to N635 residues) expressed in bacterial expression system at 1 uM by KINOMEScan assay relative to control
[2] = biological target: T1, Mitogen-activated protein kinase kinase kinase kinase 2 (Homo sapiens) (UniProt Q12851); experiment: Inhibition of human wild type GCK (M1 to G318 residues) expressed in mammalian expression system at 1 uM by KINOMEScan assay relative to control
T1 sequence (whole entry): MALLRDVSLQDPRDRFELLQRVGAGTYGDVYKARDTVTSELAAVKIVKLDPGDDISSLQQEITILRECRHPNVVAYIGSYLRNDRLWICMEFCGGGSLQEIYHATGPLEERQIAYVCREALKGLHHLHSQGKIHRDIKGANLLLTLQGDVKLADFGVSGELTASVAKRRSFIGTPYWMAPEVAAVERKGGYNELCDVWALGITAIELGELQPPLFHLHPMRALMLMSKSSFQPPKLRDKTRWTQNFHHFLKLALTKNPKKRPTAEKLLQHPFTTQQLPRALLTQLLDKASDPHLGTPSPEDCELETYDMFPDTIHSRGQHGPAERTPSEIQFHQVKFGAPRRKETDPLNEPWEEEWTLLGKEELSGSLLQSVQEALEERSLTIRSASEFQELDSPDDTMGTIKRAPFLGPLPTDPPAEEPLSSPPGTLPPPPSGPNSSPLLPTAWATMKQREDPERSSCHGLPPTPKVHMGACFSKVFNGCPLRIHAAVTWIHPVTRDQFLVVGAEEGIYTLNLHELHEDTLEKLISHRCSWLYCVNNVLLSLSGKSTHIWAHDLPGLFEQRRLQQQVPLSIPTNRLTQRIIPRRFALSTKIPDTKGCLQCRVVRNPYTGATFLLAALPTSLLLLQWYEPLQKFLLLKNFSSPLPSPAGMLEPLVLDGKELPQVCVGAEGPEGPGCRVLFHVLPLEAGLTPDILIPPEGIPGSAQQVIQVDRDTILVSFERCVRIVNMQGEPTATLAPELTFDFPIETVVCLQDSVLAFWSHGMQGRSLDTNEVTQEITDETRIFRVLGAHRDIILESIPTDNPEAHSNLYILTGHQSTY

[3] = biological target: T2, Mitogen-activated protein kinase kinase kinase kinase 2 (Homo sapiens, UniProt Q12851); experiment: Binding affinity to human wild type GCK (M1 to G318 residues) expressed in mammalian expression system by KINOMEScan assay
T2 sequence (Q12851 whole entry): T1 sequence (whole entry)

inhibition [1] [%] | inhibition [2] [%] | Kd [3] [nM] | Compound
59 | 99.1 |  | COc1ccc(-c2cc3nccn3c(Nc3ncccc3C(N)=O)n2)cc1
1 | 29 |  | CNC(=O)c1cccnc1Nc1cc(-c2ccccc2)cc2[nH]ccc12
4 | 47 |  | CCCCOc1ccc(-c2cc3nccn3c(Nc3ncccc3C(N)=O)n2)cc1
74 | 100 |  | Cc1cccc(-c2cc3nccn3c(Nc3ncccc3C(N)=O)n2)c1
0 | 2 |  | O=C(NCc1ccccc1)c1cccnc1Nc1nc(-c2ccccc2)cc2nccn12
51 | 86 |  | CCCOc1ccc(-c2cc3nccn3c(Nc3ncccc3C(N)=O)n2)cc1
58 | 99.2 |  | Cc1ccc(-c2cc3nccn3c(Nc3ncccc3C(N)=O)n2)cc1
80 | 100 |  | COc1cc(OC)cc(-c2cc3nccn3c(Nc3ncccc3C(N)=O)n2)c1
0 | 0 |  | CNC(=O)c1cccnc1Nc1nc(-c2ccc(OC)c(OC)c2)cc2nccn12
1 | 0 |  | CNC(=O)c1cccnc1Nc1nc(-c2cccc(OC)c2)cc2nccn12
11 | 94.7 | 100 | Cc1ccccc1-c1cc2nccn2c(Nc2ncccc2C(N)=O)n1
10 | 58 |  | CN(C)C(=O)c1cccnc1Nc1nc(-c2ccccc2)cc2nccn12
80 | 100 |  | COc1ccc(-c2cc3nccn3c(Nc3ncccc3C(N)=O)n2)c(OC)c1
24 | 94.3 | 49 | NC(=O)c1cccnc1Nc1nc(-c2ccc3c(c2)OCO3)cc2nccn12
19 | 20 |  | CCNC(=O)c1cccnc1Nc1nc(-c2ccccc2)cc2nccn12
0 | 1 |  | CNC(=O)c1cccnc1Nc1nc(-c2ccc(OC)cc2)cc2nccn12
0 | 2 |  | CNC(=O)c1cccnc1Nc1cc(-c2ccc(OC)cc2)cc2[nH]ccc12
5 | 16 |  | CCCNC(=O)c1cccnc1Nc1nc(-c2ccccc2)cc2nccn12
1 | 29 |  | CCC(C)NC(=O)c1cccnc1Nc1nc(-c2ccccc2)cc2nccn12 (stereo not given)
8 | 8 |  | CCCCNC(=O)c1cccnc1Nc1nc(-c2ccccc2)cc2nccn12
37 | 97.2 | 59 | COc1cccc(-c2cc3nccn3c(Nc3ncccc3C(N)=O)n2)c1
0 | 0 |  | CC(C)NC(=O)c1cccnc1Nc1nc(-c2ccccc2)cc2nccn12
9 | 1 |  | CNC(=O)c1cccnc1Nc1nc(-c2ccc3c(c2)OCO3)cc2nccn12
30 | 24 |  | CNC(=O)c1cccnc1Nc1nc(-c2ccccc2)cc2nccn12
85 | 100 |  | COc1ccc(-c2cc3nccn3c(Nc3ncccc3C(N)=O)n2)cc1OC
5 | 84 | 220 | COc1ccc(-c2cccc(-c3cc4nccn4c(Nc4ncccc4C(N)=O)n3)c2)cc1
61 | 100 |  | COc1ccccc1-c1cc2nccn2c(Nc2ncccc2C(N)=O)n1
73 | 99.5 |  | NC(=O)c1cccnc1Nc1nc(-c2ccccc2)cc2nccn12
